How the values were obtained:
Test in all cases: relative viability (nuclei count vs DMSO), 5 days (fraction); higher = more cells survive
[1] = compound: Cn1cc(-c2cnn3c(N)c(Br)c([C@@H]4CCCNC4)nc23)cn1 + CC(=O)Nc1cccc(-n2c(=O)n(C3CC3)c(=O)c3c(Nc4ccc(I)cc4F)n(C)c(=O)c(C)c32)c1 [Trametinib] (partner 0.02 µM)
Method in brief: (§1)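 Relative viability is defined as nuclei in treated wells over nuclei in vehicle wells. Duplicate plates were run and medians reported. Lung cancer cell lines in 1536-well plates were dosed by pin tool one day after seeding, with one drug or with a fixed anchor-drug dose plus five library-drug doses (not always all listed) in √10 steps, and nuclei were counted after 5 days.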

[2] = compound: Cn1cc(-c2cnn3c(N)c(Br)c([C@@H]4CCCNC4)nc23)cn1 + COc1cccc2cc(-c3nc([C@H]4CC[C@H](C(=O)O)CC4)n4ncnc(N)c34)[nH]c12 [OSI-027] (partner 0.5 µM)
Method in brief: as §1

[3] = compound: Cn1cc(-c2cnn3c(N)c(Br)c([C@@H]4CCCNC4)nc23)cn1 + N=C(N)NC(=N)NCCc1ccccc1 [Phenformin] (partner 250 µM)
Method in brief: as §1

[4] = compound: Cn1cc(-c2cnn3c(N)c(Br)c([C@@H]4CCCNC4)nc23)cn1 + C[C@@H](Oc1cc(-c2cnn(C3CCNCC3)c2)cnc1N)c1c(Cl)ccc(F)c1Cl [Crizotinib] (partner 1 µM)
Method in brief: as §1

## NCI-H1734
[1]; first compound 0.05 µM
  relative viability: 0.667
[1]; first compound 0.1581 µM
  relative viability: 0.802
[1]; first compound 0.5 µM
  relative viability: 0.665
[1]; first compound 1.581 µM
  relative viability: 0.658
[1]; first compound 5 µM
  relative viability: 0.576
[2]; first compound 0.05 µM
  relative viability: 0.59
[2]; first compound 0.1581 µM
  relative viability: 0.581
[2]; first compound 0.5 µM
  relative viability: 0.563
[2]; first compound 1.581 µM
  relative viability: 0.54
[2]; first compound 5 µM
  relative viability: 0.362
[3]; first compound 0.05 µM
  relative viability: 0.368
[3]; first compound 0.1581 µM
  relative viability: 0.457
[3]; first compound 0.5 µM
  relative viability: 0.373
[3]; first compound 1.581 µM
  relative viability: 0.349
[3]; first compound 5 µM
  relative viability: 0.319
[4]; first compound 0.05 µM
  relative viability: 0.682
[4]; first compound 0.1581 µM
  relative viability: 0.804
[4]; first compound 0.5 µM
  relative viability: 0.633
[4]; first compound 1.581 µM
  relative viability: 0.661
[4]; first compound 5 µM
  relative viability: 0.393

## NCI-H1755
[1]; first compound 0.05 µM
  relative viability: 0.783
[1]; first compound 0.1581 µM
  relative viability: 0.802
[1]; first compound 0.5 µM
  relative viability: 0.744
[1]; first compound 1.581 µM
  relative viability: 0.782
[1]; first compound 5 µM
  relative viability: 0.765
[2]; first compound 0.05 µM
  relative viability: 0.74
[2]; first compound 0.1581 µM
  relative viability: 0.803
[2]; first compound 0.5 µM
  relative viability: 0.715
[2]; first compound 1.581 µM
  relative viability: 0.693
[2]; first compound 5 µM
  relative viability: 0.587
[3]; first compound 0.05 µM
  relative viability: 0.629
[3]; first compound 0.1581 µM
  relative viability: 0.664
[3]; first compound 0.5 µM
  relative viability: 0.603
[3]; first compound 1.581 µM
  relative viability: 0.652
[3]; first compound 5 µM
  relative viability: 0.597
[4]; first compound 0.05 µM
  relative viability: 0.988
[4]; first compound 0.1581 µM
  relative viability: 1.03
[4]; first compound 0.5 µM
  relative viability: 0.932
[4]; first compound 1.581 µM
  relative viability: 0.845
[4]; first compound 5 µM
  relative viability: 0.602

## NCI-H1792
[1]; first compound 0.05 µM
  relative viability: 0.409
[1]; first compound 0.1581 µM
  relative viability: 0.6
[1]; first compound 0.5 µM
  relative viability: 0.536
[1]; first compound 5 µM
  relative viability: 0.513
[2]; first compound 0.1581 µM
  relative viability: 0.91
[2]; first compound 0.5 µM
  relative viability: 0.677
[2]; first compound 1.581 µM
  relative viability: 0.574
[2]; first compound 5 µM
  relative viability: 0.719
[3]; first compound 0.05 µM
  relative viability: 0.189
[3]; first compound 0.1581 µM
  relative viability: 0.345
[3]; first compound 0.5 µM
  relative viability: 0.261
[3]; first compound 1.581 µM
  relative viability: 0.203
[3]; first compound 5 µM
  relative viability: 0.236
[4]; first compound 0.05 µM
  relative viability: 0.843
[4]; first compound 0.1581 µM
  relative viability: 0.861
[4]; first compound 0.5 µM
  relative viability: 0.861
[4]; first compound 1.581 µM
  relative viability: 0.656
[4]; first compound 5 µM
  relative viability: 0.582

## NCI-H1915
[1]; first compound 0.05 µM
  relative viability: 0.479
[1]; first compound 0.1581 µM
  relative viability: 0.313
[1]; first compound 0.5 µM
  relative viability: 0.304
[1]; first compound 1.581 µM
  relative viability: 0.347
[1]; first compound 5 µM
  relative viability: 0.301
[2]; first compound 0.05 µM
  relative viability: 0.646
[2]; first compound 0.1581 µM
  relative viability: 0.631
[2]; first compound 0.5 µM
  relative viability: 0.566
[2]; first compound 1.581 µM
  relative viability: 0.543
[2]; first compound 5 µM
  relative viability: 0.561
[3]; first compound 0.05 µM
  relative viability: 0.344
[3]; first compound 0.1581 µM
  relative viability: 0.377
[3]; first compound 0.5 µM
  relative viability: 0.36
[3]; first compound 1.581 µM
  relative viability: 0.357
[3]; first compound 5 µM
  relative viability: 0.379
[4]; first compound 0.05 µM
  relative viability: 0.674
[4]; first compound 0.1581 µM
  relative viability: 0.871
[4]; first compound 0.5 µM
  relative viability: 0.906
[4]; first compound 1.581 µM
  relative viability: 0.697
[4]; first compound 5 µM
  relative viability: 0.905

## NCI-H1944
[1]; first compound 0.05 µM
  relative viability: 0.406
[1]; first compound 0.1581 µM
  relative viability: 0.382
[1]; first compound 0.5 µM
  relative viability: 0.39
[1]; first compound 1.581 µM
  relative viability: 0.374
[1]; first compound 5 µM
  relative viability: 0.379
[2]; first compound 0.05 µM
  relative viability: 0.427
[2]; first compound 0.1581 µM
  relative viability: 0.454
[2]; first compound 0.5 µM
  relative viability: 0.39
[2]; first compound 1.581 µM
  relative viability: 0.349
[2]; first compound 5 µM
  relative viability: 0.278
[3]; first compound 0.05 µM
  relative viability: 0.212
[3]; first compound 0.1581 µM
  relative viability: 0.199
[3]; first compound 0.5 µM
  relative viability: 0.198
[3]; first compound 1.581 µM
  relative viability: 0.194
[3]; first compound 5 µM
  relative viability: 0.186
[4]; first compound 0.05 µM
  relative viability: 0.951
[4]; first compound 0.1581 µM
  relative viability: 1.21
[4]; first compound 0.5 µM
  relative viability: 1.09
[4]; first compound 1.581 µM
  relative viability: 0.931
[4]; first compound 5 µM
  relative viability: 0.717

## NCI-H1975
[1]; first compound 0.05 µM
  relative viability: 0.356
[1]; first compound 0.1581 µM
  relative viability: 0.328
[1]; first compound 0.5 µM
  relative viability: 0.326
[1]; first compound 1.581 µM
  relative viability: 0.331
[1]; first compound 5 µM
  relative viability: 0.239
[2]; first compound 0.05 µM
  relative viability: 0.895
[2]; first compound 0.1581 µM
  relative viability: 0.72
[2]; first compound 0.5 µM
  relative viability: 0.706
[2]; first compound 1.581 µM
  relative viability: 0.554
[2]; first compound 5 µM
  relative viability: 0.654
[3]; first compound 0.05 µM
  relative viability: 0.44
[3]; first compound 0.1581 µM
  relative viability: 0.435
[3]; first compound 0.5 µM
  relative viability: 0.443
[3]; first compound 1.581 µM
  relative viability: 0.338
[3]; first compound 5 µM
  relative viability: 0.356
[4]; first compound 0.05 µM
  relative viability: 1.01
[4]; first compound 0.1581 µM
  relative viability: 1.05
[4]; first compound 0.5 µM
  relative viability: 0.781
[4]; first compound 1.581 µM
  relative viability: 0.764
[4]; first compound 5 µM
  relative viability: 0.714

## NCI-H1993
[1]; first compound 0.05 µM
  relative viability: 0.518
[1]; first compound 0.1581 µM
  relative viability: 0.467
[1]; first compound 0.5 µM
  relative viability: 0.643
[1]; first compound 1.581 µM
  relative viability: 0.435
[1]; first compound 5 µM
  relative viability: 0.511
[2]; first compound 0.05 µM
  relative viability: 0.603
[2]; first compound 0.1581 µM
  relative viability: 0.551
[2]; first compound 0.5 µM
  relative viability: 0.389
[2]; first compound 1.581 µM
  relative viability: 0.55
[2]; first compound 5 µM
  relative viability: 0.54
[3]; first compound 0.05 µM
  relative viability: 0.522
[3]; first compound 0.1581 µM
  relative viability: 0.536
[3]; first compound 0.5 µM
  relative viability: 0.412
[3]; first compound 1.581 µM
  relative viability: 0.481
[3]; first compound 5 µM
  relative viability: 0.513
[4]; first compound 0.05 µM
  relative viability: 0.76
[4]; first compound 0.1581 µM
  relative viability: 0.878
[4]; first compound 1.581 µM
  relative viability: 0.933
[4]; first compound 5 µM
  relative viability: 0.702

## NCI-H2009
[1]; first compound 0.05 µM
  relative viability: 0.272
[1]; first compound 0.1581 µM
  relative viability: 0.284
[1]; first compound 0.5 µM
  relative viability: 0.271
[1]; first compound 1.581 µM
  relative viability: 0.252
[1]; first compound 5 µM
  relative viability: 0.224
[2]; first compound 0.05 µM
  relative viability: 0.681
[2]; first compound 0.1581 µM
  relative viability: 0.709
[2]; first compound 0.5 µM
  relative viability: 0.534
[2]; first compound 1.581 µM
  relative viability: 0.515
[2]; first compound 5 µM
  relative viability: 0.422
[3]; first compound 0.05 µM
  relative viability: 0.487
[3]; first compound 0.1581 µM
  relative viability: 0.507
[3]; first compound 0.5 µM
  relative viability: 0.453
[3]; first compound 1.581 µM
  relative viability: 0.434
[3]; first compound 5 µM
  relative viability: 0.409
[4]; first compound 0.05 µM
  relative viability: 1.05
[4]; first compound 0.1581 µM
  relative viability: 1.03
[4]; first compound 0.5 µM
  relative viability: 1.08
[4]; first compound 1.581 µM
  relative viability: 0.881
[4]; first compound 5 µM
  relative viability: 0.678
